Results published in patent US8952008B2, “Chemical compounds” (Pfizer Limited, priority 2012, dated 2015).

What was measured:
[1] = molecular target: human recombinant GABA A receptor containing the alpha2, beta2, and gamma3 subunits (Homo sapiens, UniProt P47869+Q99928); test: Radioligand competition binding assay with [3H]Ro-15-1788 (Flumazenil);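 also: membranes from HEK cells expressing the receptor, incubated with radioligand to equilibrium, filter-bound radioactivity counted, Ki reported as geometric mean of replicate runs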
Procedure: Membranes were prepared from HEK cells expressing hGABA A alpha2beta2-gamma3 receptor, and validated to ascertain protein concentration, receptor expression and to determine the Kd of the flumazenil as well as the Ki of a standard set of compounds before being used to test new compounds.
100 ul of radioligand and 100 ul of membrane in 50 mM Tris-HCl and 0.05% F127 with 1 ul of test compound was incubated for 2 hours to allow the reaction to achieve equilibrium, and then harvested onto filter plates, dried and counted on a TopCount NXT. The data was analysed, and the Ki values were presented as the geometric mean of at least two replicates.

[2] = molecular target: GABRA1-GABRB3-GABRG2 chloride currents in HEK cells (Homo sapiens (Human), UniProt P14867+P18507); test: QPatch electrophysiological recording, % enhancement of GABA current (α1 PAM); format: cell-based; settings: approximately EC10 GABA, −60 mV, whole-cell patch clamp
Procedure: (§1) Cell suspension containing HEK cells expressing GABRA2-GABRB2-GABRG2 was placed on the QPatch instrument in serum-free medium into the instrument's cell stirrer. The instrument washed the cells once using extracellular buffer and then dispensed them into the QPlate HT measurement plate at a concentration of 3-4-e6/ml. […] All recordings were made at room temperature (22-24° C.).
(§2) Current records were acquired at 1 KHz and filtered at 0.3 KHz using the Bessel filter. Series resistance compensation was set to 80% in the QPatch software.
(§3) All compounds were dissolved in dimethyl sulfoxide to make 30 mM or 10 mM stock solutions, which were then diluted to 1000 times the desired final concentration in dimethyl sulfoxide. These were diluted into extracellular solution to attain the final concentrations desired. […] This concentration of dimethyl sulfoxide was present in all samples.
(§4) Currents were recorded at −60 mV, using an approximately EC10 concentration of gamma-aminobutyric acid (GABA). This dose of gamma-aminobutyric acid was applied for 6 seconds and washed off using extracellular buffer as an unrecorded application using the pipetting system of the QPatch instrument. The same dose of gamma-aminobutyric acid was then applied for 9 seconds, then the test compound was co-applied with this dose of gamma-aminobutyric acid for 15 seconds, and washed off using the extracellular solution using the pipetting system of the QPatch instrument.
(§5) Compound effect (% enhancement of gamma-aminobutyric acid current) was calculated using the following formula: [((peak modulator current amplitude-leak)−(GABA current amplitude-leak))/(GABA current amplitude-leak)]*100, where ‘leak’ is leak current at −60 mV, ‘peak modulator current amplitude’ is the current elicited by co-application of gamma-aminobutyric acid and test compound, and ‘GABA current amplitude’ is the current elicited by application of gamma-aminobutyric acid alone.
The ability of the compounds of the formula (I) to modulate the GABA channels expressing the al subunit (or GABRA1) can also be measured using an assay analogous to that described above but replacing the GABRA2-GABRB2-GABRG2 gene construct with the GABRA1-GABRB3-GABRG2 gene construct. All other conditions remain the same including the same cell line and conditions for cell growth.

[3] = molecular target: GABRA2-GABRB2-GABRG2 chloride currents in HEK cells (Homo sapiens (Human), UniProt P18507+P47869); test: QPatch electrophysiological recording, % enhancement of GABA current (α2 PAM); format: cell-based; settings: approximately EC10 GABA, −60 mV, whole-cell patch clamp
Procedure: Human Embryonic Kidney (HEK) cells were transfected with a GABRA2-GABRB2-GABRG2 construct using standard techniques.
For QPatch electrophysiology testing, cells were harvested from flasks by enzymatic dissociation and resuspended in serum-free medium. Cells were typically used for electrophysiological experiments within 24 to 72 hours after splitting.
as §1, §2, §3, §4, §5

GABRA1-GABRB3-GABRG2 chloride currents in HEK cells, sequence (P14867 28-456): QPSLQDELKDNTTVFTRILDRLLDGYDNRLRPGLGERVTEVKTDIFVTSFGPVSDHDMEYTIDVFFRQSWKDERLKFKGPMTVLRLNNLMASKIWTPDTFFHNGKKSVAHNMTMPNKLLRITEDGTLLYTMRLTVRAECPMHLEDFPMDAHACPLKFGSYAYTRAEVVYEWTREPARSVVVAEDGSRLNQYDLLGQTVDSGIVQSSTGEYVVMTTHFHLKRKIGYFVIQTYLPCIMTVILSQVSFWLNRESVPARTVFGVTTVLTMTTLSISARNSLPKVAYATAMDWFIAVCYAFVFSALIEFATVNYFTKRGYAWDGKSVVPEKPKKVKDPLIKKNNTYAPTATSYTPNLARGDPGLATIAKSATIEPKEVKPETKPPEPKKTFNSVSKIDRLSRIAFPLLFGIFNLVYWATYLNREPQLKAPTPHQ
GABRA1-GABRB3-GABRG2 chloride currents in HEK cells, sequence (P28472 26-473 partner): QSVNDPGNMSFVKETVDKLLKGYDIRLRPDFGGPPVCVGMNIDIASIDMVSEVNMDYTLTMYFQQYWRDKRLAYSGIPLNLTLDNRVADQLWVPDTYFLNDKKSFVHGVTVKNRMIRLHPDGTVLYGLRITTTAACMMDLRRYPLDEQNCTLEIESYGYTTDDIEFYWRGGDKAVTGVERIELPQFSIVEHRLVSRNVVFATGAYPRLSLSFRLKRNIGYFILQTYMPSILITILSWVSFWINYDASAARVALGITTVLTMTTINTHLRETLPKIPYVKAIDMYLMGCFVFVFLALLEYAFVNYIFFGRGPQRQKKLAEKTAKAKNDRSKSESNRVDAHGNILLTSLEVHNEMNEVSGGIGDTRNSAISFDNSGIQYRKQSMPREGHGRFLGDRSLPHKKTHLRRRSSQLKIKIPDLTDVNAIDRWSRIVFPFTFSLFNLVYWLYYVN
GABRA1-GABRB3-GABRG2 chloride currents in HEK cells, sequence (P18507 40-475): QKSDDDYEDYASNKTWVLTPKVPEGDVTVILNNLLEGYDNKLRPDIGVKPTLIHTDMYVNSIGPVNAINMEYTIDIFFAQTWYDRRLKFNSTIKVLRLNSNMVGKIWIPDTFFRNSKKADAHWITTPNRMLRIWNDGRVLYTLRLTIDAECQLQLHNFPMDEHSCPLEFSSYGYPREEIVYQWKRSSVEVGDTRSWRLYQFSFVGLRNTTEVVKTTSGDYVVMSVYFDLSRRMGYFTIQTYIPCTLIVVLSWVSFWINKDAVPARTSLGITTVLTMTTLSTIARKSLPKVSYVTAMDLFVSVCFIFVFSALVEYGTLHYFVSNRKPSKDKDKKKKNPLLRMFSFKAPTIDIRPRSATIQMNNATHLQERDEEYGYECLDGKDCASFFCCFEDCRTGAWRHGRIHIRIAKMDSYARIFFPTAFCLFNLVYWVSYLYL
GABRA2-GABRB2-GABRG2 chloride currents in HEK cells, sequence (P47869 29-451): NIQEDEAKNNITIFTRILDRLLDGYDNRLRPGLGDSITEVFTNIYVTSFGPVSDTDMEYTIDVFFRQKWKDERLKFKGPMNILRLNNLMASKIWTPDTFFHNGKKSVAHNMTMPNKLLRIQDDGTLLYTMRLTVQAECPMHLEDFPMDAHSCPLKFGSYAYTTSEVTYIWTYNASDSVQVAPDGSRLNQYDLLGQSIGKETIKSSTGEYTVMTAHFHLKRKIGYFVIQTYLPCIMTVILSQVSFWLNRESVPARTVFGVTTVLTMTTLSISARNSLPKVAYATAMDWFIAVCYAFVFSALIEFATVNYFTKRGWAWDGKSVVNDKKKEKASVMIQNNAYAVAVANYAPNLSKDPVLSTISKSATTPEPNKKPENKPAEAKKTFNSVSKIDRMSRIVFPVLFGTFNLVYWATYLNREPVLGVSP
GABRA2-GABRB2-GABRG2 chloride currents in HEK cells, sequence (P47870 26-512 partner): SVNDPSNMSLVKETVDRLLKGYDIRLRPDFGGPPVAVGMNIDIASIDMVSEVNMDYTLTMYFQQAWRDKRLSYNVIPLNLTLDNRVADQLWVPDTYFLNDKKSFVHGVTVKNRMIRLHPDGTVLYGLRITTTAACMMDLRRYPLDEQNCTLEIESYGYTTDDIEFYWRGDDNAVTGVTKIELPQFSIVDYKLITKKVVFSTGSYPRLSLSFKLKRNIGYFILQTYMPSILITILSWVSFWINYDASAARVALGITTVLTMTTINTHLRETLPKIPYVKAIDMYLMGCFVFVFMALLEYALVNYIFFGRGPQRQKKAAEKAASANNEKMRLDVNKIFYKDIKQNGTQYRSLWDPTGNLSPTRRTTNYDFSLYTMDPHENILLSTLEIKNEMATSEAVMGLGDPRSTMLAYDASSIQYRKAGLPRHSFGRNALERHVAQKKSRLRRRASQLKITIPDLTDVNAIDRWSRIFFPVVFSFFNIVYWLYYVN
GABRA2-GABRB2-GABRG2 chloride currents in HEK cells, sequence (P18507 40-475): as the sequence (P18507 40-475) above

Row | Ki [1] [nM] | α1 PAM (%) [2] [%] | α2 PAM (%) [3] [%] | SMILES
1 | 91.4 | 112 | 199 | COc1cc(S(C)(=O)=O)ccc1-c1cc(-c2cnnc3c2ncn3C2CCCC2)ccc1F [Example 42, 7-Cyclopentyl-4-(6-fluoro-2′-methoxy-4′-(methylsulfonyl)-[1,1′-biphenyl]-3-yl)-7H-imidazo[4,5-c]pyridazine]
2 | 43.3 | −5.78 | 31.6 | CS(=O)(=O)c1ccc(-c2cc(-c3cnnc4c3ncn4C3CC3)ccc2F)cc1 [Example 21, 7-Cyclopropyl-4-(6-fluoro-4′-(methylsulfonyl)biphenyl-3-yl)-7H-imidazo[4,5-c]pyridazine]
3 | 170 | −5.82 | 23.9 | CCS(=O)(=O)c1ccc(-c2cc(-c3cnnc4c3ncn4C3CC3)ccc2F)c(C#N)c1 [Example 25, 5′-(7-Cyclopropyl-7H-imidazo[4,5-c]pyridazin-4-yl)-4-(ethylsulfonyl)-2′-fluoro-[1,1′-biphenyl]-2-carbonitrile]
4 | 29.1 | 14.9 | 81.3 | CCS(=O)(=O)c1ccc(-c2cc(-c3cnnc4c3ncn4C(C)C)ccc2F)c(C#N)c1 [Example 41, 4-(Ethylsulfonyl)-2′-fluoro-5′-(7-isopropyl-7H-imidazo[4,5-c]pyridazin-4-yl)-[1,1′-biphenyl]-2-carbonitrile]
5 | 10.9 | −4.67 | 1.69 | CCn1cnc2c(-c3ccc(F)c(-c4ccc(S(C)(=O)=O)cc4F)c3)cnnc21 [Example 2, 4-[2′,6-Difluoro-4′-(methylsulfonyl)biphenyl-3-yl]-7-ethyl-7H-imidazo[4,5-c]pyridazine]
6 | 31.1 | −6.17 | 84.3 | CCS(=O)(=O)c1ccc(-c2cc(-c3cnnc4c3ncn4C3CC3)ccc2F)cc1 [Example 19, 7-Cyclopropyl-4-[4′-(ethylsulfonyl)-6-fluorobiphenyl-3-yl]-7H-imidazo[4,5-c]pyridazine]
7 | 39.2 | −0.474 | 46.7 | CCn1cnc2c(-c3ccc(F)c(-c4ccc(S(=O)(=O)CC)cc4C#N)c3)cnnc21 [Example 11, 5′-(7-Ethyl-7H-imidazo[4,5-c]pyridazin-4-yl)-4-(ethylsulfonyl)-2′-fluoro-[1,1′-biphenyl]-2-carbonitrile]
8 | 101 | 69.4 | 173 | COc1cc(S(C)(=O)=O)ccc1-c1cc(-c2cnnc3c2ncn3C2CCC2)ccc1F [Example 29, 7-Cyclobutyl-4-(6-fluoro-2′-methoxy-4′-(methylsulfonyl)-[1,1′-biphenyl]-3-yl)-7H-imidazol[4,5-c]pyridazine]
9 | 8.56 | 14.6 | 62.5 | COc1cc(S(C)(=O)=O)ccc1-c1cc(-c2cnnc3c2ncn3C(C)C)ccc1F [Example 38, 4-(6-Fluoro-2′-methoxy-4′-(methylsulfonyl)-[1,1′-biphenyl]-3-yl)-7-isopropyl-7H-imidazo[4,5-c]pyridazine]
10 | 31.1 | 1.05 | 124 | CCn1cnc2c(-c3ccc(F)c(-c4ccc(S(=O)(=O)C(C)C)cc4)c3)cnnc21 [Example 1, 7-Ethyl-4-[6-fluoro-4′-(propan-2-ylsulfonyl)biphenyl-3-yl]-7H-imidazo[4,5-c]pyridazine]
11 | 16.4 | −27.0 | 79.9 | CNS(=O)(=O)c1ccc(-c2cc(-c3cnnc4c3ncn4C(C)C)ccc2F)cc1 [Example 33, 2′-Fluoro-N-methyl-5′-[7-(propan-2-yl)-7H-imidazo[4,5-c]pyridazin-4-yl]biphenyl-4-sulfonamide]
12 | 37.1 | −0.441 | 55.3 | COc1cc(S(C)(=O)=O)ccc1-c1cc(-c2cnnc3c2ncn3C2CC2)ccc1F [Example 24, 7-Cyclopropyl-4-(6-fluoro-2′-methoxy-4′-(methylsulfonyl)-[1,1′-biphenyl]-3-yl)-7H-imidazo[4,5-c]pyridazine]
13 | 5.82 | −29.5 | 77.2 | CC(C)n1cnc2c(-c3ccc(F)c(-c4ccc(S(N)(=O)=O)cc4)c3)cnnc21 [Example 32, 2′-Fluoro-5′-(7-isopropyl-7H-imidazo[4,5-c]pyridazin-4-yl)biphenyl-4-sulfonamide]
14 | 23.9 | 21.3 | 118 | CCS(=O)(=O)c1ccc(-c2cc(-c3cnnc4c3ncn4C(C)C)ccc2F)cc1 [Example 31, 4-[4′-(Ethylsulfonyl)-6-fluorobiphenyl-3-yl]-7-(propan-2-yl)-7H-imidazo[4,5-c]pyridazine]
15 | 34.5 | 4.99 | 94.7 | CCS(=O)(=O)c1ccc(-c2cc(-c3cnnc4c3ncn4C(C)C)ccc2F)c(F)c1 [Example 34, 4-[4′-(Ethylsulfonyl)-2′,6-difluorobiphenyl-3-yl]-7-(propan-2-yl)-7H-imidazol[4,5-c]pyridazine]

Row | SMILES | Ki [1] [nM] | α1 PAM (%) [2] [%] | α2 PAM (%) [3] [%]
16 | CCn1cnc2c(-c3ccc(F)c(-c4ccc(S(=O)(=O)NC)cc4)c3)cnnc21 [Example 8, 5′-(7-Ethyl-7H-imidazo[4,5-c]pyridazin-4-yl)-2′-fluoro-N-methylbiphenyl-4-sulfonamide] | – | −55.1 | 19.4
